Assay results as given in paper PMC6476181 (ChemMedChem, 2019).

Tests used:
[1] = target: T1, MEK4 (Homo sapiens, UniProt P45985); assay: TR-FRET displacement of active site tracer; assay type: binding; conditions: 10 µM
T1 sequence (P45985 1-399): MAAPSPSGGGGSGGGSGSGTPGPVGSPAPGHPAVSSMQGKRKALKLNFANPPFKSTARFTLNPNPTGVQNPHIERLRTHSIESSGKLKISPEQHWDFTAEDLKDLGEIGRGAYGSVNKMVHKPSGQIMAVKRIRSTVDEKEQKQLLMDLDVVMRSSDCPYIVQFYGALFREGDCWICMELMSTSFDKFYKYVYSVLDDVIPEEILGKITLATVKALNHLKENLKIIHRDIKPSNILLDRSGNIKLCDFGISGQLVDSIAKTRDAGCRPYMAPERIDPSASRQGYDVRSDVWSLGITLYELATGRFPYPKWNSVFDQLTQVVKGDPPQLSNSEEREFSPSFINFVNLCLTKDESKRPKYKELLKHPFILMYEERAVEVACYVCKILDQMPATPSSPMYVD

[2] = tested on: Cot; conditions: ref 10a; cited from earlier work
[3] = target: T2, MEK7 (Homo sapiens, UniProt O14733); conditions: cited from earlier work
T2 sequence (O14733 1-419): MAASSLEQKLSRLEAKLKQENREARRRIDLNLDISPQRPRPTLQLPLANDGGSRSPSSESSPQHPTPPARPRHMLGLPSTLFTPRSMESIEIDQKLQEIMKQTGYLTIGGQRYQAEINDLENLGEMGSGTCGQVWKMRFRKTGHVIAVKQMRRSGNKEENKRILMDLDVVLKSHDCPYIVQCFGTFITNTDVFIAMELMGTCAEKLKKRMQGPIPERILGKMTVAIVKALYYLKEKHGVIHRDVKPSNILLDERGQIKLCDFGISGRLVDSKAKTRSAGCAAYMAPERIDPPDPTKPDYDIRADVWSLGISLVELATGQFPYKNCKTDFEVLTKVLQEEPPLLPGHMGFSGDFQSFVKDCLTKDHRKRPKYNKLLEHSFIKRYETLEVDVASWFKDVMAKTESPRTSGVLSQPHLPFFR

[4] = target: T1, MEK4; conditions: cited from earlier work
[5] = tested on: proliferation and viability of cells; assay: Trypan blue exclusion, cells treated for 3 days; assay type: cell-based; conditions: comparison against genistein at 10 µM, p < 0.05
[6] = tested on: 57 diverse kinases; assay: Kinase selectivity panel of 57 diverse kinases; assay type: biochemical; conditions: 10 µM
[7] = tested on: cancer cell motility and migration; assay: Wound scratch assay; assay type: cell-based

SMILES: CN[C@@H]1C[C@H]2O[C@@](C)([C@@H]1OC)n1c3ccccc3c3c4c(c5c6ccccc6n2c5c31)C(=O)NC4 [staurosporine]
- TR-FRET ratio, displacement of tracer bound to MEK4 active site [1]: background levels

SMILES: O=c1c(-c2ccc(O)c(O)c2)coc2cc(O)ccc12 [THIF, 7, 3’, 4’-trihydroxyisoflavone]
- inhibition of Cot activity [2]: inhibits Cot activity

SMILES: COc1ccc2c(Cc3ccc(O[Si](C)(C)C(C)(C)C)cc3)c3[n+](cc2c1OC)CCc1cc2c(cc1-3)OCO2 [HWY336]
- inhibition of MEK7 [3]: inhibits both MEK4 and MEK7
- inhibition of MEK4 [4]: inhibits both MEK4 and MEK7

SMILES: O=C(O)c1ccc(-c2n[nH]c3cc(F)ccc23)cc1 [Compound 6ff, 4-(6-fluoro-2H-indazol-3-yl)benzoic acid]
- toxicity (proliferation and viability, trypan blue exclusion) [5]: less toxicity compared to the promiscuous kinase inhibitor genistein
- number of kinases inhibited > 35% out of 57 tested [6]: 12
- S(35) value ([6]; 57 kinases): 0.21
- efficacy in wound scratch assay ([7]; 10 µM): no efficacy
- efficacy in wound scratch assay ([7]; 25 µM): no efficacy
